# Columns and labels:
# HRP [1] = biological target: T1, HRP (Armoracia rusticana, UniProt P00433); assay: Comparison of signal intensity (Example 10): maximum signal with HRP; format: biochemical, horseradish; conditions: 3×10^−4 M compound, 0.025 M tris pH 8, 2.5 mM urea peroxide, 4 mM p-hydroxycinnamic acid; 3.5×10^−16 moles of HRP
# T1 sequence (P00433 31-338): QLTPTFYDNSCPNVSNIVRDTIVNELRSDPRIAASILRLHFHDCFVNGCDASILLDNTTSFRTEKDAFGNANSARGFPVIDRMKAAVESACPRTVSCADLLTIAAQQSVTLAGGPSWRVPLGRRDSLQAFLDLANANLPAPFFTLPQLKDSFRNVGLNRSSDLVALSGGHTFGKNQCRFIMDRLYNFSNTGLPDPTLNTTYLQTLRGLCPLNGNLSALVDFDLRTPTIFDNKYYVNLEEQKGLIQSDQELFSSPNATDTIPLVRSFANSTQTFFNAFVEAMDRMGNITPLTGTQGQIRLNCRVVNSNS
# Method: (§1) The maximum signal produced by each of compounds 14, and 27-29 was compared by reacting a 100 μL aliquot of reagent compositions comprising 0.025 M tris buffer, pH 8, 2.5 mM urea peroxide, 4 mM p-hydroxycinnamic acid, 0.5 mM EDTA, 0.1% Tween 20, and 3×10^−4 M of the test compound with 3.5×10^−16 moles of HRP. Each reagent reached maximum light intensity in about 1 minute.
# HRP [2] = biological target: T1, HRP; assay: Chemiluminescent detection of HRP with compound 14; format: biochemical, horseradish; conditions: 3×10^−4 M compound 14, pH 8.0, p-hydroxycinnamic acid
# Method: Reagent compositions comprising 0.025 M tris buffer, pH 8.0, 2.5 mM urea peroxide, 4 mM p-hydroxycinnamic acid, 0.5 mM EDTA, 0.1% Tween 20 and 3×10^−4 M compound 14 were tested for production of chemiluminescence by reacting triplicate 100 μL aliquots with 10 μL of HRP in the range 1.4×10^−16 to 1.4×10^−20 moles. Light production ensued upon mixing and reached maximum intensity in about 1 min. The relation between chemiluminescence intensity and amount of enzyme is depicted in FIG. 1. For comparison, the relationship between S-B and amount of HRP is also shown for reference compound 1 having the formula:
# The results for the reference compound were measured 15 minutes after addition of 10 μL of solutions of HRP containing between 1.4×10^−15 and 1.4×10^−19 moles of enzyme to 100 μL of the reagent comprising 0.055 M tris buffer, pH 8.6, 0.25 mM urea peroxide, 0.05 mM p-phenylphenol, 0.5 mM EDTA, 0.0125% Tween 20 and 3.3×10^−4 M of Ref 1.
# HRP [3] = biological target: T1, HRP; assay: Comparison of signal intensity (Example 9): chemiluminescence on reaction of reagent with HRP; format: biochemical, horseradish; conditions: 5×10^−5 M compound, 0.01 M tris pH 8, 0.5 mM urea peroxide, 0.1 mM p-phenylphenol, 0.025% Tween 20; 3.5×10^−16 moles of HRP
# Method: Reagent compositions comprising 0.01 M tris buffer, pH 8, 0.5 mM urea peroxide, 0.1 mM p-phenylphenol, […], 0.025% Tween 20, and 5×10^−5 M of each compound in the table below except the compound designated Ref. 1 were tested for production of chemiluminescence by reacting a 100 μL aliquot with 3.5×10^−16 moles of HRP. The reagent formulation for Ref. 1 comprised 0.05 M tris buffer, pH 8.6, 0.25 mM urea peroxide, 0.05 mM p-phenylphenol, 0.5 mM EDTA, 0.0125% Tween 20, and 3.3×10^−4 M Ref. 1. For comparison, data are provided for reference compounds 1 and 2.
# HRP [4] = biological target: T1, HRP; assay: Chemiluminescence time profile (Example 12); format: biochemical, horseradish; conditions: 3×10^−4 M compound 27, 3.5×10^−16 moles of HRP; compared with reagents of Example 11
# Method: Reagent compositions comprising 0.025 M tris buffer, pH 8.0, 2.5 mM urea peroxide, 4 mM p-hydroxy-cinnamic acid, 0.5 mM EDTA, 0.1% Tween 20, and 3×10^−4 M compound 27 were tested for production of chemiluminescence by reacting a 100 μL aliquot with 3.5×10^−16 moles of HRP.
# HRP [5] = biological target: T1, HRP; assay: Chemiluminescent detection of HRP with compound 27; format: biochemical, horseradish; conditions: 3×10^−4 M compound 27, pH 8.0, p-hydroxycinnamic acid
# Method: Reagent compositions comprising 0.025 M tris buffer, pH 8.0, 2.5 mM urea peroxide, 4 mM p-hydroxycinnamic acid, 0.5 mM EDTA, 0.1% Tween 20 and 3×10^−4 M compound 27 were tested for production of chemiluminescence by reacting triplicate 100 μL aliquots with 10 μL of HRP in the range 1.4×10^−16 to 1.4×10^−20 moles. Light production ensued upon mixing and reached maximum intensity in about 1 min. The relation between chemiluminescence intensity at 1.5 min and amount of enzyme is depicted in FIG. 2 along with the results for Ref. compound 1 at 15 min as described above.
# HRP-labeled antibody [6] = biological target: T2, HRP-labeled antibody (Armoracia rusticana, UniProt P00433); assay: Stability of working solution by western blot assay; format: physicochemical; conditions: stored 1 year at 4° C.
# T2 sequence (P00433 31-338): T1 sequence (P00433 31-338)
# Method: (§2) Western blot assays of β-galactosidase were conducted according to Example 13 but using nitrocellulose membrane and a detection reagent comprising 0.025 M tris buffer, pH 8.0, 2.5 mM urea peroxide, 4 mM p-hydroxycinnamic acid, 0.5 mM EDTA, 0.1% Tween 20, and 1 mM compound 46.
# A further measure of the long term stability of a working solution containing compound 46 was provided by serial western blot assays over a 1 year period according to the procedure in example 18. FIG. 9 depicts the performance comparison in the western blot protocol described above using fresh vs. 1 year old working solutions.
# HRP-labeled antibody [7] = biological target: T2, HRP-labeled antibody; assay: Western blot of β-galactosidase on nitrocellulose membrane with compound 46; format: biochemical; conditions: 1 mM compound 46, nitrocellulose, time points up to 120 min
# Method: A western blot assay of β-galactosidase as the test antigen was conducted according to the procedure described in U. K. Laemmli, Nature (London), 227, 680 (1970) using a PVDF membrane. β-Galactosidase standards in the range of 5000-5 pg. The detection reagent containing Compound 1 permitted detection to be performed in under 1 minute.
# as §2
# HRP [8] = biological target: T1, HRP; assay: Comparison of signal intensity (Example 17): maximum signal with HRP; format: biochemical, horseradish; conditions: 1 mM test compound (Formulation 1.0); 3.5×10^−16 moles of HRP
# Method: as §1, with “40-51” for “14, and 27-29”, “either 1 mM, 0.3 mM, 0.15 mM or 0.05 mM” for “3×10^−4 M”, “1-3 minutes.” for “about 1 minute.”
# HRP [9] = biological target: T1, HRP; assay: Stability of working solutions by solution assay; format: physicochemical, horseradish; set-up: key to Activity / Activity (Control): maximum chemiluminescence intensity (arbitrary light units); conditions: for Activity (Control): fresh reagent from components stored at 4° C.; for Activity: stored working solution
# Method: Reagent stability of the working solutions of compound 53 and compound 46 was assessed by preparing the working solution by combining 50 μL aliquots of the two component solutions and storing the mixed solutions at 4° C. or room temperature. The working solution contained 0.025 M tris buffer, pH 8, 2.5 mM urea peroxide, 4 mm p-hydroxycinnamic acid, 0.5 mM EDTA, 0.1% Tween 20, and 0.05 mM of the substrate. Chemiluminescent assays were run with 3.5×10^−16 moles of HRP at 25° C. Maximum intensity results were compared to the values obtained with fresh reagent prepared from the individual components stored at 4° C. […] The composition containing compound 53 was unchanged after four months at 4° C., that containing compound 46 was unchanged after 9 months at 4° C.
# peroxidase = conditions: reacted with HRP; disclosed in U.S. Pat. No. 5,922,558; cited from earlier work
compound,measurement,setting,value
CSC(SCCCS(=O)(=O)[O-])=C1c2ccccc2N(c2ccccc2)c2ccccc21.[Na+] [Compound 14],Signal/Background,HRP [1],2491
same,time to reach maximum intensity,HRP [2],about 1 min
same,Signal/Background,HRP [3],688
CSC(SCCCS(=O)(=O)[O-])=C1c2ccccc2N(Cc2ccccc2)c2ccccc21.[Na+] [Compound 27],Signal/Background,HRP [1],6933
same,relative chemiluminescence time profile,HRP [4],rapid generation of chemiluminescence and higher signal level
same,time to reach maximum intensity,HRP [5],about 1 min
same,Signal/Background,HRP [3],533
O=S(=O)([O-])CCCOC1CSC(=C2c3ccccc3N(c3ccccc3)c3ccccc32)SC1.[Na+] (stereo not shown) [Compound 46],"western blot performance, fresh vs. 1 year old working solution",HRP-labeled antibody [6],no diminution in blotting assay sensitivity
same,detection of β-gal,HRP-labeled antibody [7],excellent sensitivity
same,Signal/Background,HRP [8],13000
same,% Rel. Activity (Control),HRP [9]; 2 months,101.6%
same,% Rel. Activity (Control),HRP [9]; 3.5 months,100.2%
same,% Rel. Activity (Control),HRP [9]; 4 months,100.0%
same,% Rel. Activity (Control),HRP [9]; 6 months,97.0%
same,% Rel. Activity (Control),HRP [9]; 9 months,99.3%
same,working solution composition after storage,HRP [9]; 9 months at 4° C.,unchanged
same,% Rel. Activity (Control),HRP [9]; 12 months,90.9%
same,Activity (Control),HRP [9]; 2 months,610
same,Activity (Control),HRP [9]; 3.5 months,613
same,Activity (Control),HRP [9]; 4 months,600
same,Activity (Control),HRP [9]; 6 months,660
same,Activity (Control),HRP [9]; 9 months,720
same,Activity (Control),HRP [9]; 12 months,660
same,Activity,HRP [9]; 2 months,620
same,Activity,HRP [9]; 3.5 months,614
same,Activity,HRP [9]; 4 months,600
same,Activity,HRP [9]; 6 months,640
same,Activity,HRP [9]; 9 months,715
same,Activity,HRP [9]; 12 months,600
same,reagent performance on storage of working solution,"HRP [9]; up to three weeks at room temperature, 0.05 mM substrate",no deterioration of reagent performance
COC(Sc1ccccc1)=C1c2ccccc2N(C)c2ccccc21 [drawing 18],time to reach maximum chemiluminescence intensity,peroxidase,7 min

# From patent US8106203B2, “Assay methods using chemiluminescent detection of peroxidase” (Lumigen, Inc., priority 2001, dated 2012)
